Data on 1 molecule can be found in PMC4450870 (Pain, 2015).

Common to all, as to format: cell-based
Test [1] has as its target KCNQ2 (Rattus norvegicus, UniProt O88943). The test is described as follows: whole-cell voltage clamp, CHO cells.
Test [2] has as its target KCNQ2 (Rattus norvegicus, UniProt O88943, R198A). The experiment in a line: whole-cell voltage clamp, CHO cells.
Test [3] has as its target KCNQ2/KCNQ3 (Rattus norvegicus, UniProt O88943+O88944). The test is described as follows: whole-cell patch clamp, transfected CHO cells. As to conditions: activator, −10 mV test potential, room temperature, bath pH 7.4.

KCNQ2 (Rattus norvegicus, UniProt O88943, R198A), sequence (O88943 whole entry R198A): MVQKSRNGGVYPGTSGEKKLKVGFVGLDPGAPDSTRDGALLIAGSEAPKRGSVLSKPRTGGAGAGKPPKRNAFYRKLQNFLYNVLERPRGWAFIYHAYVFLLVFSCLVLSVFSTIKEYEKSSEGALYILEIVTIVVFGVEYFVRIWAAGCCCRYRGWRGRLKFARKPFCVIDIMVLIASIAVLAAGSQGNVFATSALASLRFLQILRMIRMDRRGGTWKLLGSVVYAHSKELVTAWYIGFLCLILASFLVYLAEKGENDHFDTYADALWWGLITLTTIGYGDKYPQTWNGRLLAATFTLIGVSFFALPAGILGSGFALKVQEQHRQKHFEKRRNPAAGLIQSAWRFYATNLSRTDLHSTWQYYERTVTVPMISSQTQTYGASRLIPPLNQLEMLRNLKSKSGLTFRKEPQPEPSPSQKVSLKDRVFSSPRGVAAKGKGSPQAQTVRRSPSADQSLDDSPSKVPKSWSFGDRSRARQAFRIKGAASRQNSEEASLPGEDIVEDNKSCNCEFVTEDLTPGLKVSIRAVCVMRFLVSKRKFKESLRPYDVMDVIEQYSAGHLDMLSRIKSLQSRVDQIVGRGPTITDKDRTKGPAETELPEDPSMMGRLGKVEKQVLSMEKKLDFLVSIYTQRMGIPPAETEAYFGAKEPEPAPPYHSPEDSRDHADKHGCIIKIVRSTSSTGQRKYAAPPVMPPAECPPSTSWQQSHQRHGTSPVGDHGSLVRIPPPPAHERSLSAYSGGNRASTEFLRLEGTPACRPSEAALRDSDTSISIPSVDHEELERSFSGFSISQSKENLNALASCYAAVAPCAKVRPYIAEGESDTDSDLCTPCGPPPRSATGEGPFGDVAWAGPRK
KCNQ2 (Rattus norvegicus, UniProt O88943), sequence (O88943 whole entry): as the sequence (O88943 whole entry R198A) above, with A198R counted along it
KCNQ2/KCNQ3, sequence (O88943 whole entry): as the sequence (O88943 whole entry R198A) above, with A198R counted along it
KCNQ2/KCNQ3, sequence (O88944 whole entry): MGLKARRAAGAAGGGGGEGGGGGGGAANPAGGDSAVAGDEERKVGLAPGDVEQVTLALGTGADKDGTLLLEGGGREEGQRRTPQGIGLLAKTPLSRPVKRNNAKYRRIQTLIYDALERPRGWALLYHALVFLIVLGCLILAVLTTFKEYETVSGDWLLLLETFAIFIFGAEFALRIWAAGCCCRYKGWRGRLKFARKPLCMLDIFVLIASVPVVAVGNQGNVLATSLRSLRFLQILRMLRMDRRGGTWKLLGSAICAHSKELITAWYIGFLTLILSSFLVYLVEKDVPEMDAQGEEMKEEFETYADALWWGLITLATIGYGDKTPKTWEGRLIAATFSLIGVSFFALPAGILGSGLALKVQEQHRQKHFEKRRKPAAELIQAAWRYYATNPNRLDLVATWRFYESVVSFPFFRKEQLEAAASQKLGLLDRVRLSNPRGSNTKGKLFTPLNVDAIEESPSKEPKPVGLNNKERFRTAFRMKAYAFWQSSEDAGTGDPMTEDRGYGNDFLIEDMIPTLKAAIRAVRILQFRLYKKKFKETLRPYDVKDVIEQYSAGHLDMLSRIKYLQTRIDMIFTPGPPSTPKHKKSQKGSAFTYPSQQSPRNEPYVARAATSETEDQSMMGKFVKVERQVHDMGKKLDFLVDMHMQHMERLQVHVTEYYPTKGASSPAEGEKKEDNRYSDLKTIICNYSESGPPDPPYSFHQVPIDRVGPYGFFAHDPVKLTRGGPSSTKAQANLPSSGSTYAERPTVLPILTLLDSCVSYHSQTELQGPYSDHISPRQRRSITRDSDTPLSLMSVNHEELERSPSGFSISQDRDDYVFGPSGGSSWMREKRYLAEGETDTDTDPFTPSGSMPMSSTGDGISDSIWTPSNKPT

Turning to `CCc1oc2ccccc2c1C(=O)c1cc(Br)c(O)c(Br)c1` [benzbromarone], the EC50 in test [1] turned out to be 4.32 ± 1.4 µM; in test [2], 28.2 ± 1.32 µM. In addition, in test [3], the “fold increase of outward current at 10 μM” value is recorded as ~ 1.64 ± 0.08 fold.
